Laboratory results as given in article PMC4546118 (SpringerPlus, 2015).

Experiments:
[1] = set-up: method as in Kusama et al. [1998]; conditions: binding to plasma proteins; ref Kusama et al. [1998]; cited from earlier work
[2] = Pharmacokinetics of VCM after intravenous administration to control and PN rats; conditions: 5 mg/kg intravenous bolus, two-compartment model, plasma LC/MS/MS
Experimental: (§1) Briefly, 3 days before the start of PN administration, cardiac catheterization was performed via the right jugular vein with a polyurethane catheter (0.6-mm ID, 0.9-mm OD, Primetech Co., Tokyo, Japan) in rats anesthetized with sodium pentobarbital, and given ampicillin for prevention of infection and local bupivacaine for pain relief. The cannulated rats were housed individually in cages with free access to food and water, and received saline at a rate of 0.1 mL/h for 3 days via the catheter with a syringe pump (ISIS Co., Ltd., Osaka, Japan), and daily ampicillin (2 mg/kg, 2-min infusion) for recovery from surgery. For PN administration, infusion of PN solution was started at a rate of 1.25 mL/h for 2 days under fasting and water-deprived conditions; PN solution consisting of glucose, amino acids, electrolytes, and vitamins (approximately 0.97 kcal/mL) was prepared by mixing PNTWIN No. 3 with VITAJECT (Fukushima et al. [2015]). Subsequently, PN administration was performed at a rate of 2.5 mL/h (viz., 60 mL/day, 58 kcal/day) for 7 days; likewise, the sham operated rats (control rats) underwent the same regimen with saline and allowed free access to food throughout the treatment.
(§2) Blood samples were taken 5, 15, 30, 45, 60, 90, 120, 180, 240, and 360 min after administration, and were centrifuged at 12,000 rpm for 15 min to collect the plasma fraction. In the intraduodenal administration study, the abdominal cavity was opened in anesthetized rats and the stomach was exposed. […] After administration, the incision was closed with a tissue adhesive and the pylorus was ligated. Blood samples were taken 5, 15, 30, 60, 90, 120, 180, 240, 300, and 360 min after administration, and plasma samples were collected by centrifugation. The collected plasma samples in both studies were immediately frozen at −80 °C until analysis.
(§3) After vortexing and centrifugation at 12,000 rpm for 15 min, the supernatant was diluted in 340 µL of distilled water and was passed through a filter, and 10 µL of the filtrate was injected into a Quattro Ultima LC/MS/MS system with a 2690 Separation Module (Waters Co, MA, UK). […] Mass spectrometry was conducted with electrospray ionization in positive mode (ESI+) under the following conditions: source temperature, 130 °C; cone voltage, 35 V; capillary voltage, 4.0 kV.
(§4) All pharmacokinetic analyses were performed using WinNonlin® Version 6.3 (Pharsight, Mountain View, CA). The structural parameters, including the absorption rate constant (ka), distribution volume of the central compartment (Vc), distribution volume of the peripheral compartment (Vp), total body clearance (CLtot), and distribution clearance (CLD2), and the secondary parameters including the maximum concentration (Cmax), time to maximum concentration (Tmax), distribution half-life (t1/2α), elimination half-life (t1/2β), and the area under the plasma concentration–time curve (AUC) were calculated. The bioavailability (F) was calculated using the following equation: F=AUCintraduodenal/Doseintraduodenal/AUCintravenous/Doseintravenous, where Dose represents the administered dosage.
(§5) All values are represented by the mean ± standard error (SE). Statistical differences of the means were assumed to be significant when p < 0.05 by the Mann–Whitney U test.

[3] = Pharmacokinetics of VCM after intraduodenal administration to control and PN rats; conditions: for F (bioavailability): 20 mg/kg intraduodenal vs 5 mg/kg intravenous, dose-normalised AUC ratio; for ka (absorption rate constant) / CLD2/F / Cmax (maximum concentration) / Vc/F / Vp/F / t1/2α (distribution half-life) / t1/2β (elimination half-life) / CLtot/F: 20 mg/kg intraduodenal, two-compartment model with first-order absorption, plasma LC/MS/MS; for ka (absorption rate constant): pylorus ligated
Experimental: as §1, §2, §3, §4, §5

[4] = PN rats (parenteral nutrition for 9 days), mean of n = 4
[5] = PN rats (parenteral nutrition for 9 days), mean of n = 4, p<0.05 vs control

CN[C@H](CC(C)C)C(=O)N[C@H]1C(=O)N[C@@H](CC(N)=O)C(=O)N[C@H]2C(=O)N[C@H]3C(=O)N[C@H](C(=O)N[C@H](C(=O)O)c4cc(O)cc(O)c4-c4cc3ccc4O)[C@H](O)c3ccc(c(Cl)c3)Oc3cc2cc(c3O[C@@H]2O[C@H](CO)[C@@H](O)[C@H](O)[C@H]2O[C@H]2C[C@](C)(N)[C@H](O)[C@H](C)O2)Oc2ccc(cc2Cl)[C@H]1O [VCM, vancomycin]
protein binding rate [1]: approximately 47% | AUC (area under the plasma concentration vs time curve) [2, 4]: 807 µg·min/mL | CLD2 (distribution clearance) [2, 4]: 4.23 mL/min/kg | CLtot (total body clearance) [2, 4]: 6.22 mL/min/kg | Vc (distribution volume of the central compartment) [2, 4]: 0.234 L/kg | Vp (distribution volume of the peripheral compartment) [2, 4]: 0.223 L/kg | t1/2α (distribution half-life) [2, 4]: 13.72 min | Vc (distribution volume of the central compartment) ([2]; control rats (sham, saline), male Wistar, mean of n = 4 (SE in own column)): 0.214 L/kg | AUC (area under the plasma concentration vs time curve) ([2]; control rats, mean of n = 4): 788 µg·min/mL | CLD2 (distribution clearance) ([2]; control rats, mean of n = 4): 6.26 mL/min/kg | CLtot (total body clearance) ([2]; control rats, mean of n = 4): 6.44 mL/min/kg | Vp (distribution volume of the peripheral compartment) ([2]; control rats, mean of n = 4): 0.283 L/kg | t1/2α (distribution half-life) ([2]; control rats, mean of n = 4): 9.72 min | F (bioavailability) [3, 5]: 1.295% | ka (absorption rate constant) [3, 4]: 0.256 min⁻¹ | CLD2/F [3, 4]: 1360 mL/min/kg | Cmax (maximum concentration) [3, 4]: 267 ng/mL | Vc/F [3, 4]: 89 L/kg | Vp/F [3, 4]: 29 L/kg | t1/2α (distribution half-life) [3, 4]: 26.2 min | t1/2β (elimination half-life) [3, 4]: 150 min | CLtot/F [3, 5]: 590 mL/min/kg | ka (absorption rate constant) ([3]; control rats (sham, saline), mean of n = 4): 0.214 min⁻¹ | F (bioavailability) ([3]; control rats, mean of n = 4): 0.504% | CLD2/F ([3]; control rats, mean of n = 4): 2050 mL/min/kg | CLtot/F ([3]; control rats, mean of n = 4): 1340 mL/min/kg | Cmax (maximum concentration) ([3]; control rats, mean of n = 4): 111 ng/mL | Vc/F ([3]; control rats, mean of n = 4): 158 L/kg | Vp/F ([3]; control rats, mean of n = 4): 107 L/kg | t1/2α (distribution half-life) ([3]; control rats, mean of n = 4): 31.4 min | t1/2β (elimination half-life) ([3]; control rats, mean of n = 4): 174 min
